Data on 29 molecules can be found in patent US10703757B2, “Compounds and methods for CDK8 modulation and indications therefor” (Plexxikon Inc., priority 2016, dated 2020).

For test [1], the system named is CDK8 (phosphorylation of STAT1 at serine 727 in A549 cells). The test can be described thus: Cell based Phospho-STAT1 assay (IFNγ-stimulated A549 cells, AlphaLISA). To be noted: Homo sapiens, A549, A549 cells, phospho-STAT1 after IFNγ stimulation. In a few lines: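 A549 cells given serial compound dilutions for 1 h at 37 °C, then stimulated with IFNγ at 10 ng/mL final for 30 min. Lysate STAT1 Ser727 phosphorylation measured by AlphaLISA; % inhibition vs stimulated/unstimulated DMSO controls, IC50 by nonlinear regression.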
(In general: Bead proximity is the source of the signal in Alpha formats.)

Test [2] relates to CDK8 (TCF/LEF luciferase reporter in HCT116 cells). The test can be described thus: Cell based TCF/LEF reporter assay (HCT116+TCF/LEF luciferase). The conditions noted are these: Homo sapiens, HCT-116, 24 h. In a few lines: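 HCT116 cells stably carrying a TCF/LEF-luciferase reporter (endogenous mutant β-catenin), seeded overnight, then exposed to serial compound dilutions for 24 h at 37 °C. Luminescence normalized to CellTiter-Fluor viability signal. % inhibition relative to DMSO and 10 uM CCT251545 controls, with IC50 from nonlinear regression.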
A general note: Reporter assays use an easily measured gene product as a stand-in for the process of interest.

By IC50 is commonly meant the point on the concentration scale where inhibition reaches its midpoint. For the molecule `N#CC1C2CCC1CN(c1cccn3ncc(-c4ccc(Cl)cc4)c13)C2` (stereo not shown) [Compound P-0161, 3-(3-(4-chlorophenyl)pyrazolo[1,5-a]pyridin-4-yl)-3-azabicyclo[3.2.1]octane-8-carbonitrile], the IC50 in test [1] and in test [2] was 1000 to 10000 nM in each case.
Take `N#CCCn1cc(-c2ccc(-c3cnn4ccnc(C5CCC(C#N)CC5)c34)cc2F)cn1` (stereo not shown) [Compound P-0019, (1s,4s)-4-(3-(4-(1-(2-cyanoethyl)-1H-pyrazol-4-yl)-3-fluorophenyl)pyrazolo[1,5-a]pyrazin-4-yl)cyclohexane-1-carbonitrile]: the IC50 in test [1] and in test [2] was 0.1 to 100 nM throughout.
`Cn1cc(C#Cc2cnc3cccc(N4CCC5(CCNC5=O)CC4)n23)cn1` [Compound P-0278, 8-(3-((1-methyl-1H-pyrazol-4-yl)ethynyl)imidazo[1,2-a]pyridin-5-yl)-2,8-diazaspiro[4.5]decan-1-one]: the IC50 in test [1] and in test [2] was 100 to 1000 nM throughout.
Take `Cc1ccn2ncc(-c3ccc(-c4cnn(C)c4)cc3)c2c1C1=CCC(C#N)CC1` (stereo not shown) [Compound P-0250, 4-[5-methyl-3-[4-(1-methylpyrazol-4-yl)phenyl]pyrazolo[1,5-a]pyridin-4-yl]cyclohex-3-ene-1-carbonitrile]: the IC50 in test [1] and in test [2] was 0.1 to 100 nM in each case.
In the case of `CC(C)(O)Cn1cc(-c2ccc(-c3cnc4[nH]ccc4c3N3CCC(C#N)CC3)cc2)cn1` [Compound P-0329, 1-(5-(4-(1-(2-hydroxy-2-methylpropyl)-1H-pyrazol-4-yl)phenyl)-1H-pyrrolo[2,3-b]pyridin-4-yl)piperidine-4-carbonitrile], the IC50 in test [1] and in test [2] was 0.1 to 100 nM throughout.
For `N#CC1CCN(c2cccn3ncc(-c4ccc(OCC(O)CN5CCOCC5)cc4)c23)CC1` (stereo not shown) [Compound P-0262, 1-(3-(4-(2-hydroxy-3-morpholino-propoxy)phenyl)pyrazolo[1,5-a]pyridin-4-yl)piperidine-4-carbonitrile], the IC50 in test [1] and in test [2] was 0.1 to 100 nM throughout.
Consider `Cn1ncc2cc(-c3cnn4cccc(C#CC5(O)COC5)c34)ccc21` [Compound P-0362, 3-((3-(1-methyl-1H-indazol-5-yl)pyrazolo[1,5-a]pyridin-4-yl)ethynyl)oxetan-3-ol], for which the IC50 fell in the range of 0.1 to 100 nM in test [1] and 100 to 1000 nM in test [2].
For `Cn1cc(C#Cc2cnc3cccc(N4CCC5(CC4)CNC(=O)O5)n23)cn1` [Compound P-0277, 8-(3-((1-methyl-1H-pyrazol-4-yl)ethynyl)imidazo[1,2-a]pyridin-5-yl)-1-oxa-3,8-diazaspiro[4.5]decan-2-one] the same measures were 1000 to 10000 nM and 1000 to 10000 nM.
For `N#CC1CCC(c2nccn3ncc(-c4ccc(-c5cnn(CCN6CCOCC6)c5)cc4)c23)CC1` (stereo not shown) [Compound P-0016, (1s,4s)-4-(3-(4-(1-(2-morpholinoethyl)-1H-pyrazol-4-yl)phenyl)pyrazolo[1,5-a]pyrazin-4-yl)cyclohexane-1-carbonitrile] the same measures were 0.1 to 100 nM and 0.1 to 100 nM.
Take `N#CC1CCN(c2cccn3ncc(-c4ccc(C(=O)N5CCOCC5)cc4)c23)CC1` [Compound P-0258, 1-(3-(4-(morpholine-4-carbonyl)phenyl)pyrazolo[1,5-a]pyridin-4-yl)piperidine-4-carbonitrile]: the IC50 in test [1] and in test [2] was 100 to 1000 nM throughout.
With `COc1ccc(-c2cnn3ccnc(C4=CCC(C#N)CC4)c23)cc1` (stereo not shown) [Compound P-0088, 4-(3-(4-methoxyphenyl)pyrazolo[1,5-a]pyrazin-4-yl)cyclohex-3-ene-1-carbonitrile], the IC50 in test [1] and in test [2] was 0.1 to 100 nM throughout.
Consider `Cc1ncc(-c2cnn3ccnc(C4=CCC(C#N)CC4)c23)s1` (stereo not shown) [Compound P-0077, 4-(3-(2-methylthiazol-5-yl)pyrazolo[1,5-a]pyrazin-4-yl)cyclohex-3-ene-1-carbonitrile], for which the IC50 in test [1] and in test [2] was 100 to 1000 nM throughout.
For `N#CC1CC=C(c2c(-c3ccc(OCCOC4CCOCC4)cc3)cnc3[nH]ccc23)CC1` (stereo not shown) [Compound P-0172, 4-(5-(4-(2-((tetrahydro-2H-pyran-4-yl)oxy)ethoxy)phenyl)-1H-pyrrolo[2,3-b]pyridin-4-yl)cyclohex-3-ene-1-carbonitrile], the IC50 in test [1] and in test [2] was 0.1 to 100 nM in each case.
For `N#CC1CCC(c2nccn3ncc(-c4ccc(-c5cnn(CC(N)=O)c5)cc4)c23)CC1` (stereo not shown) [Compound P-0013, 2-(4-(4-(4-((1s,4s)-4-cyanoclohexyl)pyrazolo[1,5-a]pyrazin-3-yl)phenyl)-1H-pyrazol-1-yl)acetamide], the IC50 in test [1] and in test [2] was 0.1 to 100 nM in each case.
On to `COc1ccc(-c2cnn3cccc(C4CCC(C#N)CC4)c23)cc1` (stereo not shown) [Compound P-0137, 4-(3-(4-methoxyphenyl)pyrazolo[1,5-a]pyridin-4-yl)cyclohexane-1-carbonitrile], for which the IC50 in test [1] and in test [2] was 0.1 to 100 nM throughout.
As for `N#CC1CC=C(c2nccn3ncc(-c4ccc(OCC(O)CN5CCOCC5)cc4)c23)CC1` (stereo not shown) [Compound P-0078, 4-(3-(4-(2-hydroxy-3-morpholinopropoxy)phenyl)pyrazolo[1,5-a]pyrazin-4-yl)cyclohex-3-ene-1-carbonitrile], the half-inhibitory concentration (IC50) in test [1] and in test [2] was 0.1 to 100 nM in each case.
With `CCn1cc(-c2ccc(-c3cnc4[nH]ccc4c3N3CCC(C#N)CC3)cc2)cn1` [Compound P-0173, 1-(5-(4-(1-ethyl-1H-pyrazol-4-yl)phenyl)-1H-pyrrolo[2,3-b]pyridin-4-yl)piperidine-4-carbonitrile], the IC50 in test [1] and in test [2] was 0.1 to 100 nM in each case.
For `COC(=O)c1ccc(-c2cnn3cccc(C4=CCC(C#N)CC4)c23)cc1C` (stereo not shown) [Compound P-0123, methyl 4-(4-(4-cyanocyclohex-1-en-1-yl)pyrazolo[1,5-a]pyridin-3-yl)-2-methylbenzoate], the IC50 in test [1] and in test [2] was 0.1 to 100 nM each time.
For `Cc1ccc2cc(-c3cnn4cccc(N5CCC6(CCNC6=O)CC5)c34)ccc2n1` [Compound P-0168, 8-(3-(2-methylquinolin-6-yl)pyrazolo[1,5-a]pyridin-4-yl)-2,8-diazaspiro[4.5]decan-1-one], the IC50 in test [1] and in test [2] was 0.1 to 100 nM throughout.
With `Cc1nc2cc(-c3cnn4ccnc(C5=CCC(C#N)CC5)c34)ccc2s1` (stereo not shown) [Compound P-0148, 4-(3-(2-methylbenzo[d]thiazol-5-yl)pyrazolo[1,5-a]pyrazin-4-yl)cyclohex-3-ene-1-carbonitrile], the IC50 lay within 100 to 1000 nM in test [1] and 0.1 to 100 nM in test [2].
With `CC(C)(O)C#Cc1cccn2ncc(-c3ccc(-c4cnoc4)cc3)c12` [Compound P-0228, 4-(3-(4-(isoxazol-4-yl)phenyl)pyrazolo[1,5-a]pyridin-4-yl)-2-methylbut-3-yn-2-ol], the IC50 in test [1] and in test [2] was 1000 to 10000 nM in each case.
As to `CC(C)(O)Cn1cc(-c2ccc(-c3cnc4[nH]ccc4c3C3=CCC(C#N)CC3)cc2F)cn1` (stereo not shown) [Compound P-0132, 4-(5-(3-fluoro-4-(1-(2-hydroxy-2-methylpropyl)-1H-pyrazol-4-yl)phenyl)-1H-pyrrolo[2,3-b]pyridin-4-yl)cyclohex-3-ene-1-carbonitrile], the IC50 in test [1] and in test [2] was 0.1 to 100 nM throughout.
As for `N#CC1CCC(c2cccn3ncc(-c4ccc(-n5ccnn5)cc4)c23)CC1` (mixture of isomers) [Compound P-0217, (1r,4r) and (1s,4s)-4-[3-[4-(triazol-1-yl)phenyl]pyrazolo[1,5-a]pyridin-4-yl]cyclohexanecarbonitrile], the IC50 in test [1] and in test [2] was 0.1 to 100 nM in each case.
Consider `CN(C)CCn1cc(-c2ccc(-c3cnn4ccnc(C5=CCC(C#N)CC5)c34)cc2)cn1` (stereo not shown) [Compound P-0047, 4-[3-[4-[1-(2-dimethylaminoethyl)pyrazol-4-yl]phenyl]pyrazolo[1,5-a]pyrazin-4-yl]cyclohex-3-ene-1-carbonitrile], for which the IC50 in test [1] and in test [2] was 0.1 to 100 nM each time.
In the case of `N#CC1CC=C(c2nccn3ncc(-c4ccc(-c5cnn(CC6CC6)c5)cc4)c23)CC1` (stereo not shown) [Compound P-0034, 4-(3-(4-(1-(cyclopropylmethyl)-1H-pyrazol-4-yl)phenyl)pyrazolo[1,5-a]pyrazin-4-yl)cyclohex-3-ene-1-carbonitrile], the IC50 in test [1] and in test [2] was 0.1 to 100 nM each time.
For the molecule `Cn1cc(-c2ccc(-c3cnn4cccc(C5=CCC(C(N)=O)CC5)c34)cc2)cn1` (stereo not shown) [Compound P-0443, 4-(3-(4-(1-methyl-1H-pyrazol-4-yl)phenyl)pyrazolo[1,5-a]pyridin-4-yl)cyclohex-3-ene-1-carboxamide], the IC50 in test [1] and in test [2] was 0.1 to 100 nM each time.
In the case of `Cn1cc(-c2ccc(-c3cnn4cccc(C#C[C@@](C)(O)c5ccccc5)c34)cc2)cn1` [Compound P-0246, (S)-4-(3-(4-(1-methyl-1H-pyrazol-4-yl)phenyl)pyrazolo[1,5-a]pyridin-4-yl)-2-phenylbut-3-yn-2-ol], the figures for the IC50 in test [1] and in test [2] were 0.1 to 100 nM and 100 to 1000 nM, respectively.
For `COc1ccc2cc(-c3cnn4ccnc(C#CC(C)(C)C(N)=O)c34)ccc2n1` [Compound P-0117, 4-[3-(2-methoxy-6-quinolyl)pyrazolo[1,5-a]pyrazin-4-yl]-2,2-dimethyl-but-3-ynamide] the same measures were 0.1 to 100 nM and 0.1 to 100 nM.
For `N#CC1CCC(c2cccn3ncc(-c4ccc(OCC5CCCCO5)cc4)c23)CC1` (stereo not shown) [Compound P-0144, 4-(3-(4-((tetrahydro-2H-pyran-2-yl)methoxy)phenyl)pyrazolo[1,5-a]pyridin-4-yl)cyclohexane-1-carbonitrile] the same measures were 0.1 to 100 nM and 0.1 to 100 nM.
